Reference: patent publication US7322369B2, “Methods of detaching microorganisms from, or of inhibiting microbial attachment to, animal or poultry carcasses or seafood or parts thereof” (priority 2000, dated 2008)
Counter-ions that a name gives are not always drawn.

Key:
[1] = system: bacteria bound to collagen; assay: Biosensor detachment of bacteria bound to collagen; assay type: binding; details: 0.5M arginine, phosphoric acid 0.1M, HCl 0.1M, citric acid 0.5M
Excerpt: Use of Guanidine, creatine and arginine: Guanidine is a strong cytotoxic compound and can not be used in large quantities in food plants or slaughter operations. […] However, its use may be limited in the laboratory for analysis of food tissues. Therefore, a substitute for guanidine for detachment of pathogens from food carcasses was investigated. Guanidine is structurally related to creatine and arginine with a guanidyl moeity in their molecules. […] It has been shown that creatine hydrolyzes upon dissolution in water or buffer converting it to creatinine (methylglycocyamidine), a cyclic product and an end product of creatine metabolism. […] Arginine is an essential amino acid for children but not for adults. It is non-essential for adults because it can be derived from proteins in the diet. It is also inexpensive and can be obtained in bulk. Phosphoric acid (0.1M), HCl (0.1M) and citric acid (0.5M) had no effect in the detachment studies.

E. coli 0157 = assay: Detachment of E. coli O157 in sandwich immunoassay (biosensor); assay type: binding; details: sequential .75M Arginine, then 0.25 NaCl + 0.05%Tween 80
Salmonella = assay: Detachment of Salmonella in sandwich immunoassay (biosensor); assay type: binding; details: sequential .75M Arginine, 6M Guanidine, 0.25 NaCl + 0.05% Tween 80
bacteria = assay: Bactericidal effect; assay type: cell-based; details: pH 2.5
Excerpt: The present invention also includes a method of quantifying microorganisms (e.g., bacteria) on carcasses or parts thereof. To enhance detachment of microorganisms (e.g., bacteria) for sampling: Treatment of animal and poultry carcass or seafood with polysulfated polysaccharides or carboxymethyl cellulose followed by guanidine or arginine or phosphate buffer and NaCl/non-ionic surfactant may enhance detachment of microorganisms for sampling and analytical purposes. […] At pH 4.8, live bacteria may be recovered with guanidine-HCl. At pH 2.5, guanidine-HCl is bactericidal. Therefore, its use may be limited in the laboratory (FIG. 4). For “in situ” sampling in the slaughter plants, arginine, or phosphate buffer and TWEEN-80/NaCl may be used in place of guanidine (FIG. 5).
Collagen is the major component (40%) of the connective tissues. Results from the scanning electron microscopy studies illustrated the abundance of collagen strands in the fascia and connective tissues (Medina et al. (1999), Scanning Electron Microscopy Studies on Attachment of Escherichia Coli O157:H7 to Bovine Tissues, Presented at 1999 IFT Annual Meeting, Chicago, Ill., July 24-28; Poster at Gordon Research Conference on Molecular Mechanisms of Microbial Adhesions (Aug. 1-6, 1999) and at the 18th Annual Meeting of the Philippine-American Academy of Science and Engineering, Jekyll Is., Ga., Aug. 13-15, 1999). […]

[2] = system: Salmonella typhimurium Sensor Surface; assay: Biosensor inhibition of collagen binding to Salmonella typhimurium sensor surface; details: 12 trials
E. coli O157:H7 surface = assay: Biosensor inhibition of collagen binding to E. coli O157:H7 surface; details: 12 trials
Excerpt: (§1) Biosensor Studies: A novel approach to study bacterial attachment to animal carcass was designed. The studies led to a development of a biosensor method to study binding of extracellular matrix components to the surface of immobilized bacteria. This novel approach utilized immobilized whole E. coli cells. This approach allowed the study of the binding of the lipopolysaccharides and other bacterial surface epitopes without altering their chemical structure. Conditions for immobilization and determination of the bacterial cell surface binding properties were initially assessed with anti-E. coli 0157:H7 antibody (Medina et al. (1997), Real-time analysis of antibody binding interactions with immobilized E. coli O157:H7, Biotechnology Techniques, Vol. 11 (3): 173-176). The bacterial surface was bound with an antibody produced against a heat-killed bacteria. […] The binding interactions of polysulfated polysaccharides such as heparan sulfate and iota, lambda and kappa carrageenans were determined with the extracellular matrix proteins (ECM) and the immobilized E. coli O157:H7 cells. […]

E. coli and Salmonella = assay: Biosensor kinetics of bacteria-collagen binding (E. coli and Salmonella pooled)
Excerpt: as §1

N=C(N)NCCC[C@H](N)C(=O)O [Arginine, arginine]
detachment of bacteria bound to collagen [1]: equally good or better than 1 M guanidine-HCl
Surface RU removed from the sensor surface (E. coli 0157; CFU 0): 99 RU
Surface RU removed from the sensor surface (E. coli 0157; CFU 10E + 3): 237 RU
Surface RU removed from the sensor surface (E. coli 0157; CFU 10E + 4): 249 RU
Surface RU removed from the sensor surface (E. coli 0157; CFU 10E + 5): 275 RU
Surface RU removed from the sensor surface (E. coli 0157; CFU 10E + 6): 299 RU
Surface RU removed from the sensor surface (E. coli 0157; CFU 10E + 7): 405 RU
Surface RU removed from the sensor surface (Salmonella; CFU 0): 75 RU
Surface RU removed from the sensor surface (Salmonella; CFU 10E + 4): 20 RU
Surface RU removed from the sensor surface (Salmonella; CFU 10E + 5): 32 RU
Surface RU removed from the sensor surface (Salmonella; CFU 10E + 6): 48 RU
Surface RU removed from the sensor surface (Salmonella; CFU 10E + 7): 96 RU

N=C(N)N [Guanidine, guanidine]
detachment of bacteria bound to collagen [1]: very effective detachment agent
Surface RU removed from the sensor surface (Salmonella; CFU 0): −137 RU
Surface RU removed from the sensor surface (Salmonella; CFU 10E + 4): −100 RU
Surface RU removed from the sensor surface (Salmonella; CFU 10E + 5): −54 RU
Surface RU removed from the sensor surface (Salmonella; CFU 10E + 6): −22 RU
Surface RU removed from the sensor surface (Salmonella; CFU 10E + 7): −32 RU
bactericidal effect (bacteria): bactericidal

Cl [HCl]
detachment of bacteria bound to collagen [1]: no effect

O=P(O)(O)O [Phosphoric acid]
detachment of bacteria bound to collagen [1]: no effect

O=C(O)CC(O)(CC(=O)O)C(=O)O [citric acid]
detachment of bacteria bound to collagen [1]: no effect

CN(CC(=O)O)C(=N)N [creatine]
detachment of bacteria bound to collagen [1]: ineffective

collagen
affinity constant of collagen to Salmonella binding, mean [2]: 2.75e+07 M⁻¹
affinity constant of collagen to E. coli binding, mean (E. coli O157:H7 surface): 3e+08 M⁻¹
dissociation constants of bacteria and collagen binding (E. coli and Salmonella): 10^−8 to 10^−9 KDMole
affinity constants of collagen to E. coli and Salmonella binding, range (E. coli and Salmonella; 12 trials (each)): 10^7 to 10^8 M^−1
